Reference: ChEMBL document CHEMBL1759917, “Synthesis of purin-2-yl and purin-6-yl-aminoglucitols as C-nucleosidic ATP mimics and biological evaluation as FGFR3 inhibitors” (Eur J Med Chem, 2011)
Activity calls are given as the source filed them. No cut-off for these calls is given here.

molecular target: Fibroblast growth factor receptor 3 (Homo sapiens) (UniProt P22607); test: Inhibition of FGFR3 at 50 uM
Sequence (P22607 23-806 limits assumed): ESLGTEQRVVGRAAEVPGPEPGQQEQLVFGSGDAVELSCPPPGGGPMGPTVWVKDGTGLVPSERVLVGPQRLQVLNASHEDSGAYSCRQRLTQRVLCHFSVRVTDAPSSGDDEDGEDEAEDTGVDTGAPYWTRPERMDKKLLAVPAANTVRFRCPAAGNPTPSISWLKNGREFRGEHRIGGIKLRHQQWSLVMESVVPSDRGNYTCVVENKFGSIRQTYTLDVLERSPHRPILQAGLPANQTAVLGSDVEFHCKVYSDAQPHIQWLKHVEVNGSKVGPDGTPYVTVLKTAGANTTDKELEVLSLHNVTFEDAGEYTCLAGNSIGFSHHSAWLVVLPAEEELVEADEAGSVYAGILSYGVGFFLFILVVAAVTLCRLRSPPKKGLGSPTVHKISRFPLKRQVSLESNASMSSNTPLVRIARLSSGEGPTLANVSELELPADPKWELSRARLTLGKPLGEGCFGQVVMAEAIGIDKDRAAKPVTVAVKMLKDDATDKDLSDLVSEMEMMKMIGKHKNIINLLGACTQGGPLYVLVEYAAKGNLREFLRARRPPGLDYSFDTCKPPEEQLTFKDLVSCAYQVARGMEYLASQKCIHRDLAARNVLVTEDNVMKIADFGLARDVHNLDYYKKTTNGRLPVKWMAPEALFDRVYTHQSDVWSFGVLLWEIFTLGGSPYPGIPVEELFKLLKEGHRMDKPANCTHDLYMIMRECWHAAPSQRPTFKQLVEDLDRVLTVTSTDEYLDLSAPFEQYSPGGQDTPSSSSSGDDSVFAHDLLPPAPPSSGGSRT

inhibition call (active / not active)	Compound
inactive	Nc1ncc2ncn(C[C@@H]3O[C@H](CO)[C@@H](O)[C@H]3O)c2n1
Active	COc1ccc(CCNc2nc(NC[C@@H]3O[C@H](CO)[C@@H](O)[C@@H]3O)nc3[nH]cnc23)cc1OC
Active	OC[C@H]1O[C@@H](CNc2nc(NCCc3ccccc3)nc3[nH]cnc23)[C@@H](O)[C@@H]1O
inactive	Nc1nc(Nc2ccccc2)c2ncn(C[C@@H]3O[C@H](CO)[C@@H](O)[C@H]3O)c2n1
Active	Ic1nc(NCCN2CCOCC2)c2nc[nH]c2n1
Active	COc1ccc(CCNc2nc(NC[C@@H]3O[C@H](CO)[C@@H](O)[C@@H]3O)c3nc[nH]c3n2)cc1OC
Active	OC[C@H]1O[C@@H](CNc2nc(I)nc3[nH]cnc23)[C@@H](OCc2ccccc2)[C@@H]1OCc1ccccc1
inactive	CCN(CC)CCCNc1nc(Nc2ccccc2)c2ncn(C[C@@H]3O[C@H](CO)[C@@H](O)[C@H]3O)c2n1
Active	OC[C@H]1O[C@@H](CNc2nc(NCCc3ccccc3)c3nc[nH]c3n2)[C@@H](O)[C@@H]1O
inactive	CCN(CC)CCCNc1nc(N)c2ncn(C[C@@H]3O[C@H](CO)[C@@H](O)[C@H]3O)c2n1
Active	OC[C@H]1O[C@@H](CNc2nc(NCCc3ccccc3)c3nc[nH]c3n2)[C@@H](OCc2ccccc2)[C@@H]1OCc1ccccc1
inactive	Nc1nc(N)c2ncn(C[C@@H]3O[C@H](CO)[C@@H](O)[C@H]3O)c2n1
Active	OC[C@H]1O[C@@H](CNc2nc(NCCN3CCOCC3)nc3[nH]cnc23)[C@@H](O)[C@@H]1O
Active	OC[C@H]1O[C@@H](CNc2nc(NCCN3CCOCC3)c3nc[nH]c3n2)[C@@H](O)[C@@H]1O
Active	OC[C@H]1O[C@@H](CNc2nc(NCCc3ccccc3)nc3[nH]cnc23)[C@@H](OCc2ccccc2)[C@@H]1OCc1ccccc1
inactive	Nc1ncnc2c1ncn2C[C@@H]1O[C@H](CO)[C@@H](O)[C@H]1O
